Reference: patent US7569517B2, “4-biphenyl-substituted pyrazolidin-3 5-diones pesticide agent and/or microbicide and/or herbicide” (Bayer CropScience AG, priority 2003, dated 2009)

Assays:
Format in all cases: in vivo
[1] = system: larvae of the mustard beetle (Phaedon cochleariae); assay: Phaedon test (spray treatment) (Example C); details: sprayed Chinese cabbage discs
Procedure: Phaedon Test (Spray Treatment)
(§1) • Solvents: 78 parts by weight of acetone • 1.5 parts by weight of dimethylformamide • Emulsifier: 0.5 part by weight of alkylaryl polyglycol ether
(§2) To produce a suitable preparation of active compound, 1 part by weight of active compound is mixed with the stated amounts of solvents and emulsifier, and the concentrate is diluted with emulsifier-containing water to the desired concentration.
After the desired period of time, the activity in % is determined. 100% means that all beetle larvae have been killed; 0% means that none of the beetle larvae have been killed.

[2] = system: greenhouse red spider mite (Tetranychus urticae); assay: Tetranychus test (OP-resistance/spray treatment) (Example E); details: sprayed bean leaf discs
Procedure: Tetranychus Test (OP-resistance/Spray Treatment)
as §1
To prepare a suitable preparation of active compound, 1 part by weight of active compound is mixed with the stated amounts of solvents and emulsifier, and the concentrate is diluted with emulsifier-containing water to the desired concentration.
Discs of bean leaves (Phaseolus vulgaris) which are infested by all stages of the greenhouse red spider mite (Tetranychus urticae) are sprayed with a preparation of active compound of the desired concentration.
After the desired period of time, the activity in % is determined. 100% means that all spider mites have been killed; 0% means that none of the spider mites have been killed.

[3] = system: green peach aphid (Myzus persicae); assay: Myzus test (spray treatment) (Example B); details: sprayed Chinese cabbage discs
Procedure: Myzus Test (Spray Treatment)
as §1
To produce a suitable preparation of active compound, 1 part by weight of active compound is mixed with the stated amounts of solvent and emulsifier, and the concentrate is diluted with emulsifier-containing water to the desired concentration.
Discs of Chinese cabbage (Brassica pekinensis) which are infested by all stages of the green peach aphid (Myzus persicae) are sprayed with a preparation of active compound of the desired concentration.
After the desired period of time, the activity in % is determined. 100% means that all aphids have been killed; 0% means that none of the aphids have been killed.

[4] = system: caterpillars of the army worm (Spodoptera frugiperda); assay: Spodoptera frugiperda test (spray treatment) (Example D); details: sprayed maize leaf discs
Procedure: Spodoptera Frugiperda Test (Spray Treatment)
as §1, §2
Discs of maize leaves (Zea mays) are sprayed with a preparation of active compound of the desired concentration and, after they have dried, populated with caterpillars of the army worm (Spodoptera frugiperda).
After the desired period of time, the activity in % is determined. 100% means that all caterpillars have been killed; 0% means that none of the caterpillars have been killed.

SMILES: Cc1ccc(-c2ccc(Cl)c(Cl)c2)cc1C1(Cl)C(=O)N2CCOCCN2C1=O [Ex. I-2-14]
- Kill rate in % after 7d ([1]; 500 g/ha): 100%

SMILES: Cc1ccc(-c2cccc(Cl)c2Cl)cc1C1(Cl)C(=O)N2CCCCN2C1=O [Ex. I-1-12]
- Kill rate in % after 5d ([2]; 500 g/ha): 90%

SMILES: COc1ccc(-c2ccc(C)c(C3(Cl)C(=O)N4CCOCCN4C3=O)c2)cc1Cl [Ex. I-2-35]
- Kill rate in % after 5d ([3]; 500 g/ha): 100%

SMILES: Cc1ccc(-c2ccc(Cl)cc2Cl)cc1C1(Cl)C(=O)N2CCOCCN2C1=O [Ex. I-2-12]
- Kill rate in % after 7d ([1]; 500 g/ha): 100%

SMILES: Cc1ccc(-c2ccc(F)c(Cl)c2)cc1C1(Cl)C(=O)N2CCOCCN2C1=O [Ex. I-2-18]
- Kill rate in % after 7d ([4]; 500 g/ha): 100%
- Kill rate in % after 5d ([3]; 500 g/ha): 90%

SMILES: Cc1ccc(-c2cc(Cl)cc(Cl)c2)cc1C1(Cl)C(=O)N2CCOCCN2C1=O [Ex. I-2-15]
- Kill rate in % after 7d ([1]; 500 g/ha): 100%

SMILES: Cc1ccc(-c2ccccc2Cl)cc1C1(Cl)C(=O)N2CCOCCN2C1=O [Ex. I-2-2]
- Kill rate in % after 7d ([4]; 500 g/ha): 100%

SMILES: Cc1ccc(-c2cccc(C(F)(F)F)c2)cc1C1(Cl)C(=O)N2CCOCCN2C1=O [Ex. I-2-20]
- Kill rate in % after 7d ([1]; 500 g/ha): 100%

SMILES: Cc1ccc(-c2ccc(C(F)(F)F)cc2)cc1C1(Cl)C(=O)N2CCOCCN2C1=O [Ex. I-2-21]
- Kill rate in % after 7d ([4]; 500 g/ha): 100%

SMILES: Cc1ccc(-c2cc(F)ccc2F)cc1C1(Cl)C(=O)N2CCCCN2C1=O [Ex. I-1-18]
- Kill rate in % after 7d ([1]; 500 g/ha): 100%

SMILES: Cc1ccc(-c2ccc(C(F)(F)F)cc2)cc1C1(Cl)C(=O)N2CCCCN2C1=O [Ex. I-1-22]
- Kill rate in % after 7d ([4]; 100 g/ha): 100%

SMILES: Cc1ccc(-c2ccc(OC(F)(F)F)cc2)cc1C1(Cl)C(=O)N2CCCCN2C1=O [Ex. I-1-29]
- Kill rate in % after 7d ([1]; 500 g/ha): 100%
- Kill rate in % after 5d ([2]; 500 g/ha): 100%

SMILES: Cc1ccc(-c2ccccc2F)cc1C1(Cl)C(=O)N2CCCCN2C1=O [Ex. I-1-7]
- Kill rate in % after 5d ([3]; 500 g/ha): 90%
- Kill rate in % after 7d ([1]; 500 g/ha): 100%

SMILES: Cc1ccc(-c2ccccc2)cc1C1(Cl)C(=O)N2CCCCN2C1=O [Ex. I-1-3]
- Kill rate in % after 5d ([2]; 500 g/ha): 100%

SMILES: Cc1ccc(-c2cc(Cl)ccc2Cl)cc1C1(Cl)C(=O)N2CCCCN2C1=O [Ex. I-1-14]
- Kill rate in % after 7d ([1]; 500 g/ha): 100%
- Kill rate in % after 5d ([2]; 500 g/ha): 100%

SMILES: Cc1ccc(-c2cc(Cl)ccc2Cl)cc1C1(Cl)C(=O)N2CCOCCN2C1=O [Ex. I-2-13]
- Kill rate in % after 7d ([4]; 500 g/ha): 100%

SMILES: Cc1ccc(-c2ccc(Cl)cc2Cl)cc1C1(Cl)C(=O)N2CCCCN2C1=O [Ex. I-1-13]
- Kill rate in % after 5d ([3]; 500 g/ha): 90%
- Kill rate in % after 5d ([2]; 500 g/ha): 100%

SMILES: COc1ccccc1-c1ccc(C)c(C2(Cl)C(=O)N3CCOCCN3C2=O)c1 [Ex. I-2-22]
- Kill rate in % after 5d ([2]; 100 g/ha): 90%

SMILES: Cc1ccc(-c2cc(F)ccc2F)cc1C1(Cl)C(=O)N2CCOCCN2C1=O [Ex. I-2-17]
- Kill rate in % after 7d ([1]; 500 g/ha): 100%

SMILES: Cc1ccc(-c2ccc(F)c(Cl)c2)cc1C1(Cl)C(=O)N2CCCCN2C1=O [Ex. I-1-19]
- Kill rate in % after 7d ([4]; 500 g/ha): 100%

SMILES: Cc1ccc(-c2ccc(F)cc2F)cc1C1(Cl)C(=O)N2CCCCN2C1=O [Ex. I-1-17]
- Kill rate in % after 5d ([3]; 500 g/ha): 90%
- Kill rate in % after 7d ([1]; 500 g/ha): 100%

SMILES: Cc1cccc(-c2ccc(C)c(C3(Cl)C(=O)N4CCOCCN4C3=O)c2)c1 [Ex. I-2-9]
- Kill rate in % after 5d ([2]; 500 g/ha): 90%

SMILES: Cc1ccc(-c2cccc(Cl)c2)cc1C1(Cl)C(=O)N2CCOCCN2C1=O [Ex. I-2-3]
- Kill rate in % after 7d ([4]; 500 g/ha): 100%

SMILES: Cc1cccc(-c2ccc(C)c(C3(Cl)C(=O)N4CCCCN4C3=O)c2)c1 [Ex. I-1-10]
- Kill rate in % after 7d ([1]; 500 g/ha): 100%
- Kill rate in % after 5d ([2]; 500 g/ha): 100%

SMILES: Cc1ccc(-c2ccc(F)cc2)cc1C1(Cl)C(=O)N2CCCCN2C1=O [Ex. I-1-1]
- Kill rate in % after 5d ([3]; 100 g/ha): 100%
- Kill rate in % after 7d ([1]; 100 g/ha): 100%

SMILES: Cc1ccc(-c2cccc(F)c2)cc1C1(Cl)C(=O)N2CCCCN2C1=O [Ex. I-1-8]
- Kill rate in % after 7d ([4]; 500 g/ha): 100%
- Kill rate in % after 5d ([2]; 500 g/ha): 100%

SMILES: COc1ccc(Cl)c(-c2ccc(C)c(C3(Cl)C(=O)N4CCOCCN4C3=O)c2)c1 [Ex. I-2-23]
- Kill rate in % after 5d ([3]; 500 g/ha): 100%

SMILES: Cc1ccc(-c2ccc(Cl)c(Cl)c2)cc1C1(Cl)C(=O)N2CCCCN2C1=O [Ex. I-1-15]
- Kill rate in % after 7d ([4]; 500 g/ha): 100%

SMILES: Cc1ccc(-c2cccc(F)c2)cc1C1(Cl)C(=O)N2CCOCCN2C1=O [Ex. I-2-6]
- Kill rate in % after 5d ([3]; 500 g/ha): 90%
- Kill rate in % after 7d ([1]; 500 g/ha): 100%

SMILES: Cc1ccc(-c2ccccc2F)cc1C1(Cl)C(=O)N2CCOCCN2C1=O [Ex. I-2-5]
- Kill rate in % after 5d ([2]; 500 g/ha): 90%

SMILES: Cc1ccc(-c2cccc([N+](=O)[O-])c2)cc1C1(Cl)C(=O)N2CCOCCN2C1=O [Ex. I-2-27]
- Kill rate in % after 7d ([1]; 500 g/ha): 100%
- Kill rate in % after 5d ([2]; 100 g/ha): 100%

SMILES: Cc1ccc(-c2ccc(Oc3ccccc3)cc2)cc1C1(Cl)C(=O)N2CCOCCN2C1=O [Ex. I-2-29]
- Kill rate in % after 5d ([3]; 500 g/ha): 100%

SMILES: Cc1ccc(-c2ccc(F)cc2F)cc1C1(Cl)C(=O)N2CCOCCN2C1=O [Ex. I-2-16]
- Kill rate in % after 7d ([4]; 500 g/ha): 100%
- Kill rate in % after 5d ([3]; 500 g/ha): 100%

SMILES: Cc1ccc(-c2ccc(C)c(C3(Cl)C(=O)N4CCCCN4C3=O)c2)cc1 [Ex. I-1-11]
- Kill rate in % after 7d ([1]; 500 g/ha): 100%

SMILES: Cc1ccc(-c2ccccc2C(F)(F)F)cc1C1(Cl)C(=O)N2CCOCCN2C1=O [Ex. I-2-19]
- Kill rate in % after 5d ([2]; 500 g/ha): 90%

SMILES: Cc1ccc(-c2ccc(Cl)cc2)cc1C1(Cl)C(=O)N2CCOCCN2C1=O [Ex. I-2-4]
- Kill rate in % after 7d ([4]; 500 g/ha): 100%

SMILES: COc1ccc(Cl)cc1-c1ccc(C)c(C2(Cl)C(=O)N3CCCCN3C2=O)c1 [Ex. I-1-34]
- Kill rate in % after 5d ([3]; 500 g/ha): 100%

SMILES: Cc1ccc(-c2ccc(OC(F)(F)F)cc2)cc1C1(Cl)C(=O)N2CCOCCN2C1=O [Ex. I-2-28]
- Kill rate in % after 5d ([2]; 500 g/ha): 90%

SMILES: Cc1ccc(-c2ccccc2)cc1C1(Cl)C(=O)N2CCOCCN2C1=O [Ex. I-2-1]
- Kill rate in % after 7d ([1]; 500 g/ha): 100%

SMILES: Cc1ccc(-c2ccc(C)c(C3(Cl)C(=O)N4CCOCCN4C3=O)c2)cc1 [Ex. I-2-10]
- Kill rate in % after 7d ([1]; 500 g/ha): 100%

SMILES: Cc1ccc(-c2ccc(Cl)cc2)cc1C1(Cl)C(=O)N2CCCCN2C1=O [Ex. I-1-6]
- Kill rate in % after 7d ([4]; 500 g/ha): 100%
- Kill rate in % after 7d ([1]; 500 g/ha): 100%

SMILES: Cc1ccc(-c2ccc(Oc3ccc(Cl)cc3)cc2)cc1C1(Cl)C(=O)N2CCOCCN2C1=O [Ex. I-2-34]
- Kill rate in % after 7d ([1]; 500 g/ha): 100%

SMILES: Cc1ccc(-c2ccc(F)cc2)cc1C1(Cl)C(=O)N2CCOCCN2C1=O [Ex. I-2-7]
- Kill rate in % after 7d ([4]; 100 g/ha): 100%
- Kill rate in % after 5d ([2]; 100 g/ha): 90%
